In PubChem BioAssay (NCI):
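All cell lines were grown in 96-well plates and treated with compound for 48 hours. GI50 marks 50% less growth. Definition used: TGI = concentration required for complete inhibition of growth.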

What was measured:
Experiment in all cases: growth of human tumour cells (NCI), 48 h
[1] = system: KM12 colon
[2] = system: SK-MEL-2 melanoma
[3] = system: HCT-116 colon
[4] = system: SR leukemia
[5] = system: BT-549 breast
[6] = system: MOLT-4 leukemia
[7] = system: UO-31 renal
[8] = system: SF-539 CNS
[9] = system: A549 NSCLC
[10] = system: SNB-75 CNS

CCCCCCCCCCCCCCCCN1CC2CCCCC2C1 (configuration not stated)
GI50 [1]: 5.15 µM | TGI [1]: 19.7 µM | GI50 [2]: 12.1 µM | TGI [2]: 26.3 µM | GI50 [3]: 2.97 µM | TGI [3]: 10.8 µM | GI50 [4]: 2.07 µM | TGI [4]: 4.64 µM | GI50 [5]: 11.3 µM | TGI [5]: 24.6 µM | GI50 [6]: 1.92 µM | TGI [6]: 4.28 µM | GI50 [7]: 6 µM | TGI [7]: 19.2 µM | GI50 [8]: 5.52 µM | TGI [8]: 18.6 µM | GI50 [9]: 4.09 µM | TGI [9]: 17 µM

CCc1ccccc1NC(=O)C(=O)CC(=O)c1sc(Nc2ccccc2)nc1C
TGI [1]: > 100 µM | TGI [2]: > 100 µM | TGI [3]: > 100 µM | TGI [4]: > 100 µM | TGI [6]: > 100 µM | TGI [7]: > 100 µM | TGI [8]: > 100 µM | TGI [10]: > 100 µM | TGI [9]: > 100 µM

CN(C)CCNc1c2c(c(NCCN(C)C)c3[nH]ccc13)C(=O)c1ccccc1C2=O
GI50 [1]: 0.347 µM | TGI [1]: 2.26 µM | GI50 [3]: 0.281 µM | GI50 [5]: 1.08 µM | TGI [5]: 3.04 µM | GI50 [6]: 0.199 µM | GI50 [7]: 2.28 µM | TGI [7]: > 100 µM | GI50 [8]: 1.01 µM | TGI [8]: 3.8 µM | GI50 [10]: 2.75 µM | TGI [10]: 30.6 µM | GI50 [9]: 0.748 µM | TGI [9]: 13.3 µM

COc1ccc(-c2c3c(N)nc(-c4ccncc4)nc3nc3c2c(C)nn3-c2ccccc2)cc1
GI50 [1]: 8.55 µM | TGI [1]: > 100 µM | GI50 [2]: 31 µM | TGI [2]: > 100 µM | GI50 [3]: 2.46 µM | TGI [3]: 13.6 µM | GI50 [4]: 1.53 µM | TGI [4]: > 100 µM | GI50 [5]: 41.5 µM | TGI [5]: > 100 µM | GI50 [6]: 8.58 µM | TGI [6]: > 100 µM | GI50 [7]: 50.7 µM | TGI [7]: > 100 µM | GI50 [8]: 1.93 µM | TGI [8]: 4.97 µM | GI50 [10]: 3.62 µM | TGI [10]: 28.4 µM | GI50 [9]: 2.4 µM | TGI [9]: 35.1 µM

O=C1/C(=C\c2c[nH]c3ccccc23)c2ccccc2N1c1c(Cl)cccc1Cl
GI50 [1]: 1.84 µM | TGI [1]: 3.69 µM | GI50 [2]: 1.94 µM | TGI [2]: 3.65 µM | GI50 [3]: 1.3 µM | TGI [3]: 2.56 µM | GI50 [4]: 2.33 µM | TGI [4]: 5.16 µM | GI50 [5]: 1.6 µM | TGI [5]: 4.07 µM | GI50 [6]: 1.5 µM | TGI [6]: 5.13 µM | GI50 [7]: 1.4 µM | TGI [7]: 3.23 µM | GI50 [8]: 1.59 µM | TGI [8]: 3.01 µM | GI50 [10]: 1.68 µM | TGI [10]: 5.61 µM | GI50 [9]: 2.62 µM | TGI [9]: 7.79 µM

COc1ccc(-c2nc3sc4c(c3c(=O)[nH]2)CCCCCC4)cc1
GI50 [1]: 1.18 µM | TGI [1]: > 33.2 µM | GI50 [2]: 2.83 µM | TGI [2]: 23.5 µM | GI50 [3]: 1.39 µM | TGI [3]: > 33.2 µM | GI50 [4]: 0.717 µM | TGI [4]: > 33.2 µM | GI50 [5]: 5.4 µM | TGI [5]: > 33.2 µM | GI50 [6]: 31.6 µM | TGI [6]: > 33.2 µM | GI50 [7]: > 33.2 µM | TGI [7]: > 33.2 µM | GI50 [8]: 2.56 µM | TGI [8]: > 33.2 µM | GI50 [10]: 2.2 µM | TGI [10]: 16.5 µM | GI50 [9]: 2.94 µM | TGI [9]: > 33.2 µM

CCCC(C)c1cc(Cc2cc(Cl)cc(Cl)c2O)c(O)c(Cc2cc(Cl)cc(Cl)c2O)c1 (configuration not stated)
GI50 [1]: 2.19 µM | TGI [1]: 11.4 µM | GI50 [2]: 1.76 µM | TGI [2]: 4.77 µM | GI50 [3]: 0.384 µM | TGI [3]: 3.97 µM | GI50 [4]: 0.249 µM | TGI [4]: 11 µM | GI50 [5]: 1.33 µM | TGI [5]: 5.2 µM | GI50 [6]: 1.53 µM | TGI [6]: 4.83 µM | GI50 [7]: 2.52 µM | TGI [7]: 10.2 µM | GI50 [8]: 1.09 µM | TGI [8]: 7.28 µM | GI50 [10]: 1.86 µM | TGI [10]: 7.7 µM | GI50 [9]: 2.19 µM | TGI [9]: 12.5 µM

COc1ccc(-c2csc(N(C(=O)N3CCN(c4cc5c(cc4F)c(=O)c(C(=O)O)cn5C4CC4)CC3)c3ccccc3)n2)cc1
GI50 [1]: 3.41 µM | TGI [1]: > 100 µM | GI50 [2]: 2.2 µM | TGI [2]: 5.22 µM | GI50 [3]: 0.897 µM | TGI [3]: > 63.7 µM | GI50 [4]: 2.78 µM | TGI [4]: > 100 µM | GI50 [5]: 1.6 µM | TGI [5]: 7.63 µM | GI50 [6]: 3.78 µM | TGI [6]: > 100 µM | GI50 [8]: 2.93 µM | TGI [8]: 48.7 µM | GI50 [10]: 0.812 µM | TGI [10]: > 25.9 µM | GI50 [9]: 3.01 µM | TGI [9]: 12.1 µM

CCCCCCCCCCC(C(=O)O)C1(C(=O)O)CCC(=O)O1 (configuration not stated)
TGI [1]: > 100 µM | TGI [2]: > 100 µM | TGI [3]: > 100 µM | TGI [4]: > 100 µM | TGI [5]: > 100 µM | TGI [6]: > 100 µM | TGI [7]: > 100 µM | TGI [10]: > 100 µM | TGI [9]: > 100 µM

C=CCC[CH2][Sn]([c]1ccccc1)([c]1ccccc1)[c]1ccccc1
GI50 [1]: 1.31 µM | TGI [1]: 2.58 µM | GI50 [2]: 1.76 µM | TGI [2]: 3.2 µM | GI50 [3]: 0.977 µM | TGI [3]: 2.15 µM | GI50 [4]: 0.572 µM | TGI [4]: 5.28 µM | GI50 [6]: 1.26 µM | TGI [6]: 5.27 µM | GI50 [7]: 1.89 µM | TGI [7]: 3.36 µM | GI50 [8]: 1.94 µM | TGI [8]: 3.52 µM | GI50 [10]: 2.49 µM | TGI [10]: 6.88 µM | GI50 [9]: 1.71 µM | TGI [9]: 3.54 µM

Cc1ccc(NC(=O)C(=O)C(C#N)c2ccccc2C)cc1C (configuration not stated)
TGI [1]: > 100 µM | TGI [2]: > 100 µM | TGI [3]: > 63 µM | TGI [4]: > 100 µM | TGI [6]: > 100 µM | TGI [7]: > 100 µM | TGI [8]: > 100 µM | TGI [10]: > 100 µM | TGI [9]: > 100 µM

Oc1cccc2ccc(N/N=C/c3cc(CN4CCCCC4)c(O)c4ncccc34)nc12
GI50 [1]: 0.0449 µM | TGI [1]: 1.85 µM | GI50 [2]: 0.0288 µM | TGI [2]: 0.0814 µM | GI50 [3]: 0.0426 µM | TGI [3]: 1.71 µM | GI50 [5]: 0.0574 µM | TGI [5]: 6.02 µM | GI50 [6]: 0.0597 µM | TGI [6]: 3.82 µM | GI50 [7]: 0.0292 µM | TGI [7]: 1.71 µM | GI50 [8]: 0.0481 µM | TGI [8]: 2.68 µM | GI50 [9]: 0.0365 µM | TGI [9]: 1.15 µM

CCc1nccc2c1nc(-c1nonc1N)n2CC
GI50 [1]: > 25 µM | TGI [1]: > 25 µM | GI50 [2]: > 25 µM | TGI [2]: > 25 µM | GI50 [3]: 20.4 µM | TGI [3]: > 25 µM | GI50 [5]: > 23.3 µM | TGI [5]: > 25 µM | GI50 [6]: > 25 µM | TGI [6]: > 25 µM | GI50 [7]: 9.73 µM | TGI [7]: > 25 µM | GI50 [8]: > 25 µM | TGI [8]: > 25 µM | GI50 [10]: > 23.4 µM | TGI [10]: > 25 µM | GI50 [9]: > 25 µM | TGI [9]: > 25 µM

O=C1CC(c2ccc(O)cc2)C2(O1)C(=O)OC(C(O)CO)C2O (configuration not stated)
TGI [1]: > 100 µM | TGI [2]: > 100 µM | TGI [3]: > 100 µM | TGI [5]: > 100 µM | TGI [6]: > 100 µM | TGI [7]: > 100 µM | TGI [8]: > 100 µM | TGI [10]: > 100 µM
